{"source": "BindingDB's records for doi:10.1016/s0028-3908(96)00171-2", "about": "(Smithkline Beecham Pharmaceuticals, 1997)", "target": "5-hydroxytryptamine receptor 6 (Homo sapiens, UniProt P50406)", "sequence (P50406 whole entry)": "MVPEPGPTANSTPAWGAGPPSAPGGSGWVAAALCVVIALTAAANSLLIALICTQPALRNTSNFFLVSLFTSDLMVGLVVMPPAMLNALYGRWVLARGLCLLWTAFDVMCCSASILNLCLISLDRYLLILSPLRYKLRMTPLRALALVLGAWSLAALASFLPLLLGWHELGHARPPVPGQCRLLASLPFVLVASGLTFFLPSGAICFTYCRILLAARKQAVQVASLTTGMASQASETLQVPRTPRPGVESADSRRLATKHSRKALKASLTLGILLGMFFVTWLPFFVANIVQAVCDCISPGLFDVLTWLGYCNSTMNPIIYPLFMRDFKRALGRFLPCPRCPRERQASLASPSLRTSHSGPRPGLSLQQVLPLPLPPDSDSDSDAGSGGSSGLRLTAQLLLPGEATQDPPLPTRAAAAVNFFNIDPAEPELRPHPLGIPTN"}
{"compound": "CC(N)Cc1c[nH]c2ccc(OCc3cccs3)cc12", "note": "(stereo unspecified) [NSC_5311036]", "values": [{"measurement": "Ki", "value": 398, "unit": "nM"}]}
